Values of other authors in patent US20220079925A1, “COMPOSITIONS COMPRISING TACROLIMUS FOR THE TREATMENT OF INTRAOCULAR INFLAMMATORY EYE DISEASES” (NOVALIQ GMBH, priority 2016, published 2022).

Tests used:
[1] = system: T-lymphocyte; details: inhibiting T-lymphocyte signal transduction and cell proliferation
[2] = topical administration

ability to penetrate tissue barrier [2]: poor
Structure (SMILES): C=CC[C@@H]1/C=C(\C)C[C@H](C)C[C@H](OC)[C@H]2O[C@@](O)(C(=O)C(=O)N3CCCC[C@H]3C(=O)O[C@H](/C(C)=C/[C@@H]3CC[C@@H](O)[C@H](OC)C3)[C@H](C)[C@@H](O)CC1=O)[C@H](C)C[C@@H]2OC [Tacrolimus]
potency relative to cyclosporine [1]: 100 times
